Measurements as given in patent US11696918B2 (priority 2019, dated 2023).
Like-named read-outs stand apart in the source and are kept apart here.

Key:
[1] = cited from earlier work
[2] = single dose
herpes simplex virus = settings: long-term suppressive treatment; cited from earlier work
[3] = cited from earlier work; remark: listed apart in the source
HSV-2 MS strain = assay type: in vivo, BALB/c mice; settings: for Survival (surviving/total mice): 28 days; for Clinical Scores Overall Mean: daily vaginal clinical score, 4-point system of Table 4
HSV-2 = assay: qPCR of HSV DNA copy number in dorsal root ganglia at day 28; assay type: in vivo, BALB/c mice
HSV infected cells = settings: in HSV infected cells; cited from earlier work
[4] = for quantifiable in at least 1 of 3 mice through: PCV
in vivo = settings: female, BALB/c, mouse
[5] = Group 2: Valcyclovir 125 mg/kg po
[6] = Group 1 HSV-2 A 125 mg/kg PO daily
[7] = Group 2 HSV-2 B 63 mg/kg PO daily

For CC(C)[C@H](N)C(=O)OCCOCn1cnc2c(=O)[nH]c(N)nc21 [A, Valacyclovir], the half-life ([1]; approximately) is listed as 2.5 to 3.4 h, the “Mean AUC” value ([1]; in vivo) is listed as 2270 to 19620 ng·h/mL and the “time to reach maximum concentration” value ([1]; in vivo) is listed as 1.6 to 1.9 h. For the same molecule, the “Clinical Observations: Dead (animals)” value [2, 5] was 0, the “Clinical Observations: Hypoactivity (animals)” value [2, 5] was 0 and the “Clinical Observations: Normal (animals)” value [2, 5] was 12. For the same molecule, the “Clinical Observations: Ruffled Fur (animals)” value [2, 5] was 0, the “Clinical Observations: Shoveling (animals)” value [2, 5] was 0 and the “Clinical Observations: Squinting (animals)” value [2, 5] was 0. For the same molecule, the “reduction of transmission risk” value (herpes simplex virus) was 46%, the protein binding [3] was less than 15% and the “clinical score index (fraction of mice with a clinical score)” value (HSV-2 MS strain; Group 1 (A alone), A 125 mg/kg) was 0.5. For the same molecule, the “Clinical (mice that had a clinical score/total)” value (HSV-2 MS strain; [6]) was 5/10, the “Hair loss (mice that had hair loss/total)” value (HSV-2 MS strain; [6]) was 8/10 and the “Illness (mice that had an illness score/total)” value (HSV-2 MS strain; [6]) was 10/10. For the same molecule, the “Survival (surviving/total mice)” value (HSV-2 MS strain; [6]) was 10/10, the “Clinical Scores Overall Mean” value (HSV-2 MS strain; [6]) was 0.07413 and the “Number Undetectable <3 (qPCR copy number/rxn)” value (HSV-2; [6]) was 5. The “qPCR Copy number/rxn Overall Mean” value (HSV-2; [6]) was 4.92 Copy number/rxn.

For CC(=O)OCC(CCn1cnc2cnc(N)nc21)COC(C)=O [B, Famciclovir], the bioavailability ([1]; in vivo) is listed as 77%, the plasma half-life ([1]; in vivo) is listed as 2 to 2.5 h and the “time to reach maximum concentration” value ([1]; in vivo) is listed as 0.5 to 0.75 h. The “Clinical Observations: Dead (animals)” value ([2]; Group 3: Famcyclovir 63 mg/kg po, died during first blood collection) was 1, the “Clinical Observations: Dead (animals)” value ([2]; Group 3: Famcyclovir 63 mg/kg po, died during first blood collection, listed as FCV) was “another animal died” and the “clinical score index (fraction of mice with a clinical score)” value (HSV-2 MS strain; Group 2 (B alone), B 63 mg/kg) was 0.8. For the same molecule, the “Clinical (mice that had a clinical score/total)” value (HSV-2 MS strain; [7]) was 8/10, the “Hair loss (mice that had hair loss/total)” value (HSV-2 MS strain; [7]) was 6/10 and the “Illness (mice that had an illness score/total)” value (HSV-2 MS strain; [7]) was 9/10. The “Survival (surviving/total mice)” value (HSV-2 MS strain; [7]) was 9/10, the “Clinical Scores Overall Mean” value (HSV-2 MS strain; [7]) was 0.3125 and the “Number Undetectable <3 (qPCR copy number/rxn)” value (HSV-2; [7]) was 2. For the same molecule, the “qPCR Copy number/rxn Overall Mean” value (HSV-2; [7]) was 28.32 Copy number/rxn and the intracellular half-life (HSV infected cells) was 10 to 20 h.

With Nc1nc2c(ncn2CCC(CO)CO)c(=O)[nH]1 [PCV, penciclovir] the t1/2 ([4]; Group 3: 63 mg/kg FCV, po, single dose, plasma) was 0.97 h, the “quantifiable in at least 1 of 3 mice through” value (“quantifiable” below) ([4]; Group 1: 125 mg/kg VACV + 63 mg/kg FCV iv) was 24 h and the “quantifiable” value ([4]; Group 5: 63 mg/kg VACV + 32 mg/kg FCV po) was 24 h. For the same molecule, the “quantifiable” value ([4]; Group 8: 500 mg/kg VACV + 250 mg/kg FCV po) was 24 h, the “AUClast Mean” value ([4]; female, BALB/c, mouse, in vivo, po, 63 mg/kg) was 10609 ng·h/mL and the AUC(0-inf) (in vivo; iv, 63 mg/kg, AUCinf) was 15200 ng·h/mL. It also gave an AUC(0-t) (in vivo; iv, 63 mg/kg, AUClast) of 15100 ± 2600 ng·h/mL, an AUC(0-t) (in vivo; iv, 63 mg/kg, AUClast Mean) of 15100 ng·h/mL and a Cmax (in vivo; iv, 63 mg/kg, Cmax) of 8800 ng/mL. It also gave a Cmax (in vivo; iv, 63 mg/kg, Cmax Mean) of 8800 ng/mL, a Tmax (in vivo; iv, 63 mg/kg, Tmax, Group 1: 125 mg/kg VACV and 63 mg/kg FCV, iv, single dose, plasma) of 0.083 h and a half-life (in vivo; iv, 63 mg/kg, t1/2, Group 1: 125 mg/kg VACV and 63 mg/kg FCV, iv, single dose, plasma) of 1.29 h. The half-life (in vivo; iv, 63 mg/kg, t1/2, plasma PCV, Group 1: 125 mg/kg VACV and 63 mg/kg FCV iv) was 1.29 h, the AUC(0-inf) (in vivo; po, 16 mg/kg, AUCinf) was 6200 ng·h/mL and the AUC(0-t) (in vivo; po, 16 mg/kg, AUClast Mean) was 6100 ng·h/mL. For the same molecule, the Cmax (in vivo; po, 16 mg/kg, Cmax Mean) was 4590 ng/mL, the Tmax (in vivo; po, 16 mg/kg, Tmax) was 0.5 h and the half-life (in vivo; po, 16 mg/kg, t1/2) was 1.89 h. It also gave an AUC(0-inf) (in vivo; po, 32 mg/kg, AUCinf) of 5140 ng·h/mL, an AUC(0-t) (in vivo; po, 32 mg/kg, AUClast Mean) of 5010 ng·h/mL and a Cmax (in vivo; po, 32 mg/kg, Cmax Mean) of 3150 ng/mL. It also gave a Tmax (in vivo; po, 32 mg/kg, Tmax) of 0.5 h, a half-life (in vivo; po, 32 mg/kg, t1/2) of 2.34 h and an AUC(0-inf) (in vivo; po, 63 mg/kg) of 11300 ng·h/mL. It also gave an AUC(0-t) (in vivo; po, 63 mg/kg) of 10600 ± 727 ng·h/mL, a Cmax (in vivo; po, 63 mg/kg) of 8120 ± 565 ng/mL and a Tmax (in vivo; po, 63 mg/kg) of 0.25 h. For the same molecule, the half-life (in vivo; po, 63 mg/kg) was 0.97 h, the AUC(0-inf) (in vivo; po, 63 mg/kg, AUCinf) was 19200 ng·h/mL and the AUC(0-t) (in vivo; po, 63 mg/kg, AUClast Mean) was 18400 ng·h/mL. The Cmax (in vivo; po, 63 mg/kg, Cmax Mean) was 7100 ng/mL, the Tmax (in vivo; po, 63 mg/kg, Tmax) was 0.5 h and the half-life (in vivo; po, 63 mg/kg, t1/2) was 2.34 h. For the same molecule, the AUC(0-inf) (in vivo; po, 125 mg/kg, AUCinf) was 50900 ng·h/mL, the AUC(0-t) (in vivo; po, 125 mg/kg, AUClast Mean) was 50200 ng·h/mL and the Cmax (in vivo; po, 125 mg/kg, Cmax Mean) was 16900 ng/mL. For the same molecule, the half-life (in vivo; po, 125 mg/kg, t1/2) was 1.31 h, the AUC(0-inf) (in vivo; po, AUCinf) was 85500 ng·h/mL and the AUC(0-t) (in vivo; po, AUClast Mean) was 84500 ng·h/mL. The Cmax (in vivo; po, Cmax Mean) was 31200 ng/mL, the Tmax (in vivo; po, Tmax, Group 8: VACV 500 mg/kg and FCV 250 mg/kg in combination, po, plasma) was 1 h and the half-life (in vivo; po, t1/2, Group 8: VACV 500 mg/kg and FCV 250 mg/kg in combination, po, plasma) was 4.3 h. The half-life (in vivo; po, t1/2, plasma PCV, Group 8: 500 mg/kg VACV + 250 mg/kg FCV po) was 4.3 h.
